Reference: patent US20260224714A1, “CYCLING LYSOSOMAL TARGETING ANTIBODY CONJUGATES” (Lycia Therapeutics, Inc., priority 2023, published 2026)

Legend:
Type in all cases: cell-based
[1] = system: HepG2 cells; assay: Externalization of conjugates from a cell following internalization (cycling), high-throughput format (Example 11); details: 50 nM conjugate 1 hour, stringent washes, Alexa Fluor 647-labelled a-human IgG 1 hour, FACS, normalized to unconjugated parent protein, average of two replicate wells
Experimental: (§1) The following experiments were performed with HepG2 hepatocellular carcinoma cells, grown in Eagle's Minimal Essential Media (EMEM) supplemented with 10% FBS and penicillin/streptomycin.
The method was also adapted to a high-throughput format. In this assay, 25,000 HepG2 cells were plated in 96-well plates 48 hours before performing the experiment. The day of the experiment, cells were incubated with conjugate at indicated concentrations for 1 hour. Cells were then placed on ice to prevent trafficking/recycling during wash steps, and washed once with DPBS, once with sodium acetate buffer (20 mM, 150 mM NaCl, pH 5.2), once with Earle's Balanced Salt Solution (EBSS) adjusted to pH 2.5, and once again with DPBS, to remove conjugate from media and cell surface. Afterwards, 100 ul of prewarmed (to 37° C.) EMEM with 1 μg/ml of human a-IgG antibody conjugated to Alexa Fluor647 fluorophores was added to cells for 1 hour before washing with DPBS and detaching with 0.25% Trypsin/EDTA. Cells were pelleted in 96-well conical bottom plates, washed once with FACS Buffer with BSA (Rockland Immunochemicals), resuspended FACS Buffer with BSA and median AF647 intensity was analyzed by flow cytometry. The amount of conjugate capable of cycling to the cell surface (being externalized from the cell) and binding to the Alexa Fluor647 labelled α-IgG was measured by analyzing median cellular 647 fluorescence intensity by flow cytometry. […]. Reported values are the average of the values of two replicate wells.

[2] = system: Alexa Fluor647 labelled human IgE; assay: Uptake assay: internalization of Alexa Fluor 647 labelled IgE in wild type HepG2 cells (Example 6); details: equimolar conjugate and AF647 IgE, 2 hours, median cellular AF647 intensity by flow cytometry, normalized to unconjugated parent protein
Experimental: as §1
(§2) HepG2 cells (25,000) were plated in 96-well plates 48 hours before the experiment was performed. On the day of the experiment, indicated the conjugate was mixed with an equimolar stock of Alexa Fluor647 labelled human IgE (Enzo Life Sciences, BPD-DIA-HE 1) in fresh EMEM as a 600 nM stock. The precomplexed conjugate:IgE mixture was incubated at room temperature for 30 minutes. During the precomplexing step, media from HepG2 was removed, and 40 ul of EMEM with 1/100 Fc Receptor Blocking Solution (Biolegend Human TruStain FcX, 422302) was added. Cells incubated in the receptor blocking solution for 10 minutes while making serial dilutions (1:3) of conjugate:IgE stock solution in EMEM. 40 ul of the conjugate:IgE mixture in EMEM was then added to cells (six dilutions, with final concentrations ranging from 300 nM to 1.23 nM) for 2 hours before washing with DPBS and detaching with 0.25% Trypsin/EDTA. Cells were pelleted in 96-well conical bottom plates, washed once with FACS Buffer with BSA (Rockland Immunochemicals), and resuspended in FACS Buffer with BSA. Uptake of fluorescently labelled IgE was measured by analyzing median cellular AF647 intensity by flow cytometry.
(§3) Cells were incubated with equimolar ratio of conjugate and AF647 IgE at indicated concentrations, with data normalized to unconjugated parent protein (Oma S35HWY57H-LC).

[3] = system: LysoLight-labelled human IgE; assay: Lysosomal degradation of LysoLight-labelled IgE in HepG2 cells, live cell imaging (Example 7); details: equimolar conjugate:LysoLight IgE, area under the curve of deep red fluorescence over three days, normalized to unconjugated parent protein
Experimental: as §1
HepG2 cells (15,000) were plated in 96-well plates 72 hours before performing the experiment. On the day of the experiment, indicated the conjugate was diluted in fresh EMEM and mixed with an equimolar stock of LysoLight-labelled human IgE (Enzo Life Sciences, BPD-DIA-HE1), at 200 nM of each compound. The precomplexed conjugate:IgE mixture was incubated at room temperature for 30 minutes. During the precomplexing step, media from HepG2 was removed, and 40 ul of EMEM with 1/100 Fc Receptor Blocking Solution (Biolegend Human TruStain FcX, 422302) was added. Cells incubated in the receptor blocking solution for 10 minutes while making serial dilutions (1:3) of conjugate:IgE stock solution in EMEM. 40 ul of the conjugate:IgE mixture in EMEM was then added to cells (five dilutions, with final concentrations ranging from 100 nM to 1.23 nM). Cells were placed in an IncuCyte Live-Cell Analysis System (Sartorius) for long term live cell imaging analysis (10× magnification, 3 images per well). One hour after addition of compound, image acquisition to measure red fluorescence from the LysoLight probe was started, with further Images collected every hour for 72 hours. Fluorescence of the LysoLight probe only occurs when cleaved by lysosomal cathepsin proteases, confirming lysosomal delivery and degradation of target. After 72 hours, mean red fluorescence was measured for each time point, and the area under the curve of fluorescence overtime was used to measure total degradation over the 3-day time period.

[4] = system: Alexa Fluor647 labelled human IgE; assay: Uptake assay: internalization of Alexa Fluor 647 labelled IgE in ASGPR1/2 KO HepG2 cells (Example 6); details: equimolar conjugate and AF647 IgE, normalized to unconjugated parent protein
Experimental: as §1, §2, §3

[5] = system: recombinant IgE; assay: Degradation of super-stoichiometric levels of target in HepG2 cells (Example 13, Table 31); details: 1 nM conjugate and 25 nM IgE for three days, (A-B)/C IgE depleted relative to conjugate, average of two replicate wells
Experimental: as §1
For evaluation of compounds in a high throughput format, 25,000 HepG2 cells were plated in a 96-well plate. The following day, 50 ul of 1 nM conjugate and 25 nM recombinant IgE in EMEM were added to the cells. 50 ul of the initial stock of conjugate:IgE was saved to quantify for an initial time point. Three days later, the media was collected from cells, and both initial and 72 hour time points were quantified for IgE concentration using the MSD assay.
HepG2 cells were incubated in media containing 1 nM conjugate and 25 nM IgE for three days. Concentrations of IgE at beginning and end of experiment were quantified by ELISA-based assay. Molar equivalents of IgE depleted relative to conjugate added are shown, calculated as (A-B)/C, where A is the initial concentration of IgE, B is the concentration of IgE at day three, and C is the concentration of conjugate. Reported values are the average of the values of two replicate wells.

[6] = system: human IgE; assay: Degradation of initial and subsequent dose of target in HepG2 cells (Example 12, Table 30); details: normalized to unconjugated; for Normalized Fluorescence Post Wash Median Green: after wash, probe-conjugated IgE added for 4 hours, subsequent dose of target; for Normalized Fluorescence Precomplex Median Deep Red: precomplexed equimolar conjugate:IgE (cathepsin-cleavable quenched fluorescent probe) added for 2 hours, initial dose of target
Experimental: as §1
HepG2 cells (25,000) were plated in 96-well plates 48 hours before performing the experiment. On the day of the experiment, indicated conjugate was diluted in fresh EMEM as a 2× stock, and mixed with an equimolar stock of human IgE (Enzo Life Sciences, BPD-DIA-HE 1) conjugated to a cathepsin-cleavable quenched fluorescent probe. The precomplexed conjugate:IgE mixture was incubated at 37 degrees Celsius for 30 minutes. Media from HepG2 was removed, and conjugate:IgE mixture in EMEM was added to cells for 2 hours. Cells were then placed on ice to prevent trafficking/recycling during wash steps, and washed once with DPBS, once with sodium acetate buffer (20 mM, 150 mM NaCl, pH 5.2), once with Earle's Balanced Salt Solution (EBSS) adjusted to pH 2.5, and once again with DPBS, to remove conjugate from media and cell surface. Afterwards, 100 ul of prewarmed (to 37 degrees Celsius) EMEM with cathepsin-cleavable quenched fluorescent probe-conjugated IgE was added to cells for 4 hours before washing with DPBS and detaching with 0.25% Trypsin/EDTA. Cells were pelleted in 96-well conical bottom plates, washed once with FACS Buffer with BSA (Rockland Immunochemicals), resuspended FACS Buffer with BSA and median 488 and 647 intensity was analyzed by flow cytometry. Delivery of labelled IgE to the lysosome and subsequent cleavage of initial precomplexed IgE was measured by analyzing median cellular 647 intensity, while cleavage of the post wash addition of IgE, which should only be degraded by recycling conjugates which released the first round of precomplexed IgE, was analyzed by median cellular 488 intensity. HepG2 cells were treated with human IgE (Enzo Life Sciences, BPD-DIA-HE1) conjugated to a cathepsin-cleavable quenched deep red (647) fluorescent probe precomplexed to conjugate fortwo hours, then washed, and fresh media with IgE conjugated to a green (488) cathepsin-cleavable fluorescent probe was then added without conjugate. […] Fluorescence values were measured by FACS and normalized to unconjugated parent protein. Reported values are the average of the values of two replicate wells.

Row | SMILES | Normalized Fluorescence [1] | Normalized Fluorescence 3.7 nM WT [2] | Normalized Fluorescence 100 nM WT [2] | Normalized Fluorescence 3.7 nM [3] | Normalized Fluorescence 100 nM [3] | Normalized Fluorescence 100 nM ASGPR KO [4] | Average Degradation (Molar equivalents) [5] | Normalized Fluorescence Post Wash Median Green [6] | Normalized Fluorescence Precomplex Median Deep Red [6]
1 | CC(=O)N[C@@H]1[C@@H](O)[C@@H](O)[C@@H](CO)O[C@@H]1CCCOCCOCCNC(=O)NCCCC(CCCNC(=O)NCCOCCOCCC[C@H]1O[C@H](CO)[C@H](O)[C@H](O)[C@H]1NC(C)=O)(CCCNC(=O)NCCOCCOCCC[C@H]1O[C@H](CO)[C@H](O)[C@H](O)[C@H]1NC(C)=O)NC(=O)NCOCCOCCOCCNS(=O)(=O)c1ccc(N2C(=O)C=CC2=O)cc1 [Compound 2313] | 36.4 | 89.1 | 259.1 | 13.0 | 4.1 | 1.0 | 7.5 Molar equivalents | 3.2 | 3.5
2 | CC(=O)N[C@@H]1[C@@H](O)[C@@H](O)[C@@H](CO)O[C@@H]1CCCOCCOCCNC(=O)NCCCC(CCCNC(=O)NCCOCCOCCC[C@H]1O[C@H](CO)[C@H](O)[C@H](O)[C@H]1NC(C)=O)(CCCNC(=O)NCCOCCOCCC[C@H]1O[C@H](CO)[C@H](O)[C@H](O)[C@H]1NC(C)=O)NC(=O)NCCOCCOCCOCCNC(=O)c1ccc(N2C(=O)C=CC2=O)cc1 [Compound 2314] | 40.5 | 69.0 | 265.7 | 13.9 | 3.9 | 1.0 | 6.5 Molar equivalents | 3.5 | 3.6
3 | CC(=O)N[C@@H]1[C@@H](O)[C@@H](O)[C@@H](CO)O[C@@H]1CCCOCCOCCNC(=O)NCCCC(CCCNC(=O)NCCOCCOCCC[C@H]1O[C@H](CO)[C@H](O)[C@H](O)[C@H]1NC(C)=O)(CCCNC(=O)NCCOCCOCCC[C@H]1O[C@H](CO)[C@H](O)[C@H](O)[C@H]1NC(C)=O)NC(=O)NCCOCCOCCOCCNS(=O)(=O)c1ccc(N2C(=O)C=CC2=O)cc1 [Compound 2315] | 48.8 | 77.7 | 275.7 | 15.6 | 4.0 | 1.1 | 4.5 Molar equivalents | 3.1 | 3.3
4 | CC(=O)N[C@@H]1[C@@H](O)[C@@H](O)[C@@H](CO)O[C@@H]1CCCOCCOCCNC(=O)NCCCC(CCCNC(=O)NCCOCCOCCC[C@H]1O[C@H](CO)[C@H](O)[C@H](O)[C@H]1NC(C)=O)(CCCNC(=O)NCCOCCOCCC[C@H]1O[C@H](CO)[C@H](O)[C@H](O)[C@H]1NC(C)=O)NC(=O)NCCOCCOCCOCCN(C)C(=O)CBr [Compound 2316] | 45.7 | 68.4 | 314.3 | 13.4 | 3.7 | 1.1 | 5.7 Molar equivalents | 3.5 | 3.8
5 | CC(=O)N[C@@H]1[C@@H](O)[C@@H](O)[C@@H](CO)O[C@@H]1CCCCCOCCOCCNC(=O)NCCCOCC(COCCCNC(=O)NCCOCCOCCCCC[C@@H]1O[C@@H](CO)[C@@H](O)[C@@H](O)[C@@H]1NC(C)=O)(COCCCNC(=O)NCCOCCOCCCCC[C@H]1O[C@H](CO)[C@H](O)[C@H](O)[C@H]1NC(C)=O)NC(=O)CCOCCOCCOCCNC(=O)c1ccc(N2C(=O)C=CC2=O)cc1 (stereo partly drawn) [Compound 2317] | 48.8 | 76.2 | 255.2 | 15.2 | 4.2 | 1.1 | 4.0 Molar equivalents | 3.7 | 3.6
